In brackets after ≈: the same amount, converted by molar mass.
Assays:
Albumin = Albumin (Homo sapiens, UniProt P02768); experiment: Binding affinity to human serum albumin by HPLC analysis; format: ADME; conditions: isolated protein
[1] = target: Phosphatidylinositol 4,5-bisphosphate 3-kinase catalytic subunit gamma isoform (Homo sapiens, UniProt P48736)
Description: Inhibition of PI3Kgamma (unknown origin) using biotin-PIP3 as substrate preincubated for 15 mins followed by substrate addition and measured after 60 mins by fluorescence polarization assay

[2] = target: T1, Phosphatidylinositol 4,5-bisphosphate 3-kinase catalytic subunit delta isoform (Homo sapiens, UniProt O00329)
T1 sequence (O00329 whole entry): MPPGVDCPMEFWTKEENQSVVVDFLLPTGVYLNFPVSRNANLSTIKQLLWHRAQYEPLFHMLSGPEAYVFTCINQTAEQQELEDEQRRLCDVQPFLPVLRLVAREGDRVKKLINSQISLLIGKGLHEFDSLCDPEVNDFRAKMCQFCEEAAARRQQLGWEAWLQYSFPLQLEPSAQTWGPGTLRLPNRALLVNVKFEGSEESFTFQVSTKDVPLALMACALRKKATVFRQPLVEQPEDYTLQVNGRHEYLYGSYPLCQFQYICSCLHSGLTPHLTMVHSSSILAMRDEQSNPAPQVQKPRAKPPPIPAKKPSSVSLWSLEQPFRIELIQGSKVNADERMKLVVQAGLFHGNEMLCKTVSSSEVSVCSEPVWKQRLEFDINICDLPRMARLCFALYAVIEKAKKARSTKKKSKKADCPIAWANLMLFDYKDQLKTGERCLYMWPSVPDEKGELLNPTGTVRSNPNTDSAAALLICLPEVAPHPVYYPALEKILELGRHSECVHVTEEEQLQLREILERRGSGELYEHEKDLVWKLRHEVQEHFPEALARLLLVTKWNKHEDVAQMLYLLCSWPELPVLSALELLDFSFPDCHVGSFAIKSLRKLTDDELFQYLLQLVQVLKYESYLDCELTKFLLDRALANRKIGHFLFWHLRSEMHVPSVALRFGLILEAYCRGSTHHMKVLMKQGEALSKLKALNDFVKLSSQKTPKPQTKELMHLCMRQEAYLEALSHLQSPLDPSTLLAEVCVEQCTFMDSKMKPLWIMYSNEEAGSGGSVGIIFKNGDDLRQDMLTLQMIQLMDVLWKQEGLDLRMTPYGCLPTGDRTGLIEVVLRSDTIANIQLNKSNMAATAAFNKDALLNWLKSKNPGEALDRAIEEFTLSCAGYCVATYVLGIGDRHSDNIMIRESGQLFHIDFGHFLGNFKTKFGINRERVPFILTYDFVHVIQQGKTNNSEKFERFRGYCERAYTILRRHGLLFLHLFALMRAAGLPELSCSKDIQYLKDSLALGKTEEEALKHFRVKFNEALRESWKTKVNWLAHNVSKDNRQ
Description: Inhibition of PI3Kdelta (unknown origin) using biotin-PIP3 as substrate preincubated for 15 mins followed by substrate addition and measured after 60 mins by fluorescence polarization assay

[3] = target: Phosphatidylinositol 4,5-bisphosphate 3-kinase catalytic subunit beta isoform (Homo sapiens, UniProt P42338); experiment: Inhibition of PI3Kbeta (unknown origin) using biotin-PIP3 as substrate preincubated for 15 mins followed by substrate addition and measured after 60 mins by fluorescence polarization assay
Sequence of Phosphatidylinositol 4,5-bisphosphate 3-kinase catalytic subunit beta isoform (P42338 whole entry, canonical isoform): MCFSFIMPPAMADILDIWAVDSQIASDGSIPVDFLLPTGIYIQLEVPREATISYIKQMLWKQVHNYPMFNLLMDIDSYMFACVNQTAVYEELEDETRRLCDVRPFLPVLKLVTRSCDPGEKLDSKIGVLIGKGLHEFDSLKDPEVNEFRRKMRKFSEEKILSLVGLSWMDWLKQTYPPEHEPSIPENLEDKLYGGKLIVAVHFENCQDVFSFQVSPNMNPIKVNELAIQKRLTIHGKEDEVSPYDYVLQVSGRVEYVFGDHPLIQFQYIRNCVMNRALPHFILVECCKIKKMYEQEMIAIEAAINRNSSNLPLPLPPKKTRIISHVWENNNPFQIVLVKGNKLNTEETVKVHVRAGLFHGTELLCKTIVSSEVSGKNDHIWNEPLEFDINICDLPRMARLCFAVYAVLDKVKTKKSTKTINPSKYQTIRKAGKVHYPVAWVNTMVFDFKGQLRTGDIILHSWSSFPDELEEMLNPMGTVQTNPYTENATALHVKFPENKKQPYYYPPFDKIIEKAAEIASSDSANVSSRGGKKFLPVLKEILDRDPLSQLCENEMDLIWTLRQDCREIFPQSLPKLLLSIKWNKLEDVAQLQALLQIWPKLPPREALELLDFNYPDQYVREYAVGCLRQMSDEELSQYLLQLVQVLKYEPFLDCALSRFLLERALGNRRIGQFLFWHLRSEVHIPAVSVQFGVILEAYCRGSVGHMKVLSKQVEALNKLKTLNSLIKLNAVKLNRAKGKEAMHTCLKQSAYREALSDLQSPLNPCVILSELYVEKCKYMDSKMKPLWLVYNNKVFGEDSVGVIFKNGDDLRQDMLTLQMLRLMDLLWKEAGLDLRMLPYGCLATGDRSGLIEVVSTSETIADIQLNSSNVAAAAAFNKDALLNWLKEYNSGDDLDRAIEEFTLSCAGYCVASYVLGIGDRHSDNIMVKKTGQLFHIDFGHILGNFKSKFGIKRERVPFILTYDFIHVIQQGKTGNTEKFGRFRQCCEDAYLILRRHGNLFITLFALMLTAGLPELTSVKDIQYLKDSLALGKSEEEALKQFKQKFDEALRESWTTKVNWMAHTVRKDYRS

[4] = Solubility of compound by CLND method; format: physicochemical
[5] = Lipophilicity, logD of compound at pH 7.4 by HPLC-MS analysis; conditions: buffer
[6] = target: Phosphatidylinositol 4,5-bisphosphate 3-kinase catalytic subunit alpha isoform (Homo sapiens, UniProt P42336)
Sequence of Phosphatidylinositol 4,5-bisphosphate 3-kinase catalytic subunit alpha isoform (P42336 whole entry, canonical isoform): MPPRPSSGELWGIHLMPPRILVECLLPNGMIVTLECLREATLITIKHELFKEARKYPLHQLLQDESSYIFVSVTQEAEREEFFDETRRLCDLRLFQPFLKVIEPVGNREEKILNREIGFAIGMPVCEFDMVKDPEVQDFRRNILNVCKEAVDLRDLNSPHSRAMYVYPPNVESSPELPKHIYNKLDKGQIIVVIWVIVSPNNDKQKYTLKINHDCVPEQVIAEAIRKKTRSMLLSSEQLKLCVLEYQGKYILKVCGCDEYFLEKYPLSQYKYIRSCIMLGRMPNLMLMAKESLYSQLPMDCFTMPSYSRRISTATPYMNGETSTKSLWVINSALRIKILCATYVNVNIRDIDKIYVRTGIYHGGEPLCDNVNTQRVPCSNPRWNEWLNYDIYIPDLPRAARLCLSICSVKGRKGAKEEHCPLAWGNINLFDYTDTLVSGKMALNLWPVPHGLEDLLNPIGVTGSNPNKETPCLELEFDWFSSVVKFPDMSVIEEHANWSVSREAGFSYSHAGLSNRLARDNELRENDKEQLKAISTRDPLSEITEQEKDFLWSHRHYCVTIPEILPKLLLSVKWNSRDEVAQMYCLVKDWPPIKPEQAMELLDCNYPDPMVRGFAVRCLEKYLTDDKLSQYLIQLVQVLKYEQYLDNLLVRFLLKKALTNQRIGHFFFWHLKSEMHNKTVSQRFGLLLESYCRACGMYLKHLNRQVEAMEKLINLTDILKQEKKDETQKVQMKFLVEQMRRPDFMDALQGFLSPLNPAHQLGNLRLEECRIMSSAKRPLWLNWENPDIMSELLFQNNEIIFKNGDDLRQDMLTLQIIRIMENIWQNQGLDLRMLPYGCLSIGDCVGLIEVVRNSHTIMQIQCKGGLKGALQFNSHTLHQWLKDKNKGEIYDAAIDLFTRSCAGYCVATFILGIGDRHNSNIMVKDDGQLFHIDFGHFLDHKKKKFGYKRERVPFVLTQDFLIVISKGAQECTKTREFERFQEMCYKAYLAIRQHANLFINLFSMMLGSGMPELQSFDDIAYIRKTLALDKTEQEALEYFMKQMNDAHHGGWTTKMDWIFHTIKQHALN
Description: Inhibition of PI3Kalpha (unknown origin) using biotin-PIP3 as substrate preincubated for 15 mins followed by substrate addition and measured after 60 mins by fluorescence polarization assay

Sequence of Phosphatidylinositol 4,5-bisphosphate 3-kinase catalytic subunit gamma isoform (P48736 whole entry, canonical isoform): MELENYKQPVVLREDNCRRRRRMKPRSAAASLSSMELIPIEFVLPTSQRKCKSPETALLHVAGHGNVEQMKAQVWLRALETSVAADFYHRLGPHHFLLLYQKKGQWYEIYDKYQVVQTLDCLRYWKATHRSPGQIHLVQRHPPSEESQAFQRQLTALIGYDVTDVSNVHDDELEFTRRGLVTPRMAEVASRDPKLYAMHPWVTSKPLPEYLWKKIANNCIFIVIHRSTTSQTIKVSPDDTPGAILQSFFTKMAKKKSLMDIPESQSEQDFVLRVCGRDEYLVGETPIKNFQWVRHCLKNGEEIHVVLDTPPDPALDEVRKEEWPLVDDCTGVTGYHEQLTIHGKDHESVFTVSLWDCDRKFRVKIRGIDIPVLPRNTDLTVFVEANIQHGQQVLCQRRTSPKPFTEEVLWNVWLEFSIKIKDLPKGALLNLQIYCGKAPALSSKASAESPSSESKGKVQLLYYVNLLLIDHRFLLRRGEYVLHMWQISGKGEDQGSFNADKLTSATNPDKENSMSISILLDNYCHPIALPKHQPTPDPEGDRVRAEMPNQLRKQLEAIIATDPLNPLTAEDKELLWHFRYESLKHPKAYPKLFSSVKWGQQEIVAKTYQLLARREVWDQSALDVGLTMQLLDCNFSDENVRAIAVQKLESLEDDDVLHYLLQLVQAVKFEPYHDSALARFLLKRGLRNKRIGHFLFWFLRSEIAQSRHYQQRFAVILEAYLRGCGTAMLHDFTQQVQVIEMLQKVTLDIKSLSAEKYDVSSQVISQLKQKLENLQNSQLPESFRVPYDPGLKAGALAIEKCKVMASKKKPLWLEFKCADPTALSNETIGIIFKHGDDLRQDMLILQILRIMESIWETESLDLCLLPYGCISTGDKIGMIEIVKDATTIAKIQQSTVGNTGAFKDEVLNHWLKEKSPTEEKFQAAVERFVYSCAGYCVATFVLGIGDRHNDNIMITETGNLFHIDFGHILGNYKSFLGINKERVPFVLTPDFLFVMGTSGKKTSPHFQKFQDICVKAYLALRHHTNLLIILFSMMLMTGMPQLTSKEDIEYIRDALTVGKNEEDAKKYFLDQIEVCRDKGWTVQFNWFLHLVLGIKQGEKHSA
Sequence of Albumin (P02768 whole entry, canonical isoform): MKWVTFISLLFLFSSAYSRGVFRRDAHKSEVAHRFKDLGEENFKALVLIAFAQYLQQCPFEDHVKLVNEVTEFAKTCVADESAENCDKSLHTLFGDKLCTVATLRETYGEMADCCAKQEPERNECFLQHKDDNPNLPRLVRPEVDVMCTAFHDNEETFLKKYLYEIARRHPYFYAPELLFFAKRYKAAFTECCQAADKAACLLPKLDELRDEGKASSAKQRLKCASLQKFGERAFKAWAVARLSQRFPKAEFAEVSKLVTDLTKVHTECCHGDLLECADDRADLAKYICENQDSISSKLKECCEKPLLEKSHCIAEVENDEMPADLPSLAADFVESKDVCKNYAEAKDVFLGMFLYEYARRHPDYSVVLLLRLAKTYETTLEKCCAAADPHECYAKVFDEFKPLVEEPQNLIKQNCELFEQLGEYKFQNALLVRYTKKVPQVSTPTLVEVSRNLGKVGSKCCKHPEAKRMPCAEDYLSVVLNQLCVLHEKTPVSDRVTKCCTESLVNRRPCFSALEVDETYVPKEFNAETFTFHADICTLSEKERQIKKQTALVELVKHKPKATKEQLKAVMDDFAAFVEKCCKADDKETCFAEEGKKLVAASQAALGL

Row | Compound | Activity (Albumin) | IC50 [1] | IC50 [2] | IC50 [3] | solubility kinetic [4] | logD [5] | IC50 [6]
1 | CC(=O)N(C)C1CCN(Cc2cc3nc(-c4cccc5[nH]ccc45)nc(N4CCOCC4)c3s2)C1 (racemic) | 94.4% | 631 nM | 6.31 nM | 501 nM | 251 µM (≈ 123 µg/mL) | 4.5 | 794 nM
2 | CC(=O)N(C)C1CCN(Cc2cc3nc(-c4cccc5[nH]ccc45)nc(N4CCOCC4)c3s2)CC1 | 94.5% |  | 12.6 nM | 2000 nM |  | 4.4 | 3160 nM
3 | COCC(=O)N(C)C1CCN(Cc2cc3nc(-c4cccc5[nH]ccc45)nc(N4CCOCC4)c3s2)C1 (racemic) | 94.1% | 1000 nM | 10 nM | 2510 nM | 179 µM (≈ 93.2 µg/mL) |  | 3980 nM
4 | CS(=O)(=O)NC1CCN(Cc2cc3nc(-c4cccc5[nH]ncc45)nc(N4CCOCC4)c3s2)C1 (racemic) |  | 1260 nM | 63.1 nM | 3160 nM |  | 3.5 | 251 nM
5 | CC(=O)NC1CCN(Cc2cc3nc(-c4cccc5[nH]ncc45)nc(N4CCOCC4)c3s2)C1 (racemic) |  | 1260 nM | 251 nM | 3980 nM |  | 3 | 501 nM
6 | CN(C1CCCN(Cc2cc3nc(-c4cccc5[nH]ncc45)nc(N4CCOCC4)c3s2)C1)S(C)(=O)=O (racemic) |  | 794 nM | 20 nM | 2510 nM |  | 4.9 | 200 nM
7 | COCC(=O)N(C)C1CCN(Cc2cc3nc(-c4cnc(N)nc4)nc(N4CCOCC4)c3s2)CC1 |  | 126 nM | 15.8 nM | 631 nM |  | 2.7 | 126 nM
8 | COCC(=O)N(C)C1CCCN(Cc2cc3nc(-c4cccc5[nH]ncc45)nc(N4CCOCC4)c3s2)C1 (racemic) |  | 3160 nM | 126 nM | 6310 nM |  | 4.3 | 794 nM
9 | CS(=O)(=O)NC1CCCN(Cc2cc3nc(-c4cccc5[nH]ccc45)nc(N4CCOCC4)c3s2)C1 (racemic) |  | 1000 nM | 25.1 nM | 1260 nM |  | 5 | 1580 nM
10 | COCC(=O)NC1CCCN(Cc2cc3nc(-c4cnc(N)nc4)nc(N4CCOCC4)c3s2)C1 (racemic) |  | 631 nM | 316 nM | 10000 nM |  | 3 | 501 nM
11 | CC(=O)N(C)[C@H]1CCN(Cc2cc3nc(-c4cnc(N)nc4)nc(N4CCOCC4)c3s2)C1 |  | 15.8 nM | 12.6 nM | 631 nM |  | 2.5 | 20 nM
12 | COCC(=O)N(C)C1CCN(Cc2cc3nc(-c4cccc5[nH]ccc45)nc(N4CCOCC4)c3s2)CC1 | 94.3% |  | 12.6 nM | 1000 nM | 238 µM (≈ 127 µg/mL) | 4.6 | 10000 nM
13 | CC(=O)NC1CCN(Cc2cc3nc(-c4cnc(N)nc4)nc(N4CCOCC4)c3s2)CC1 |  | 158 nM | 100 nM | 1580 nM |  | 2.2 | 126 nM
14 | CC(=O)N(C)C1CCCN(Cc2cc3nc(-c4cccc5[nH]ccc45)nc(N4CCOCC4)c3s2)C1 (racemic) |  | 2510 nM | 25.1 nM | 2510 nM |  | 5 | 1580 nM
15 | CN(C1CCN(Cc2cc3nc(-c4cnc(N)nc4)nc(N4CCOCC4)c3s2)C1)S(C)(=O)=O (racemic) |  | 12.6 nM | 6.31 nM | 251 nM |  | 3.1 | 7.94 nM
16 | CC(=O)NC1CCCN(Cc2cc3nc(-c4cnc(N)nc4)nc(N4CCOCC4)c3s2)C1 (racemic) |  | 158 nM | 79.4 nM | 2000 nM |  | 2.5 | 126 nM

Row | Compound | Activity (Albumin) | IC50 [1] | IC50 [2] | IC50 [3] | solubility kinetic [4] | logD [5] | IC50 [6]
17 | CC(=O)N(C)[C@@H]1CCN(Cc2cc3nc(-c4cnc(N)nc4)nc(N4CCOCC4)c3s2)C1 |  | 25.1 nM | 7.94 nM | 398 nM |  | 2.5 | 31.6 nM
18 | CNC(=O)N(C)C1CCCN(Cc2cc3nc(-c4cccc5[nH]ccc45)nc(N4CCOCC4)c3s2)C1 (racemic) |  | 6310 nM | 126 nM | 10000 nM |  | 4.5 | 3160 nM
19 | COCC(=O)N(C)C1CCCN(Cc2cc3nc(-c4cnc(N)nc4)nc(N4CCOCC4)c3s2)C1 (racemic) |  | 126 nM | 50.1 nM | 1580 nM |  | 2.8 | 100 nM
20 | CNC(=O)NC1CCN(Cc2cc3nc(-c4cnc(N)nc4)nc(N4CCOCC4)c3s2)C1 (racemic) |  | 158 nM | 158 nM | 1000 nM |  | 1.7 | 63.1 nM
21 | CN(C1CCN(Cc2cc3nc(-c4cccc5[nH]ncc45)nc(N4CCOCC4)c3s2)CC1)S(C)(=O)=O |  | 794 nM | 39.8 nM | 5010 nM |  | 4.5 | 316 nM
22 | CC(=O)N(C)C1CCCN(Cc2cc3nc(-c4cnc(N)nc4)nc(N4CCOCC4)c3s2)C1 (racemic) |  | 100 nM | 15.8 nM | 2000 nM |  | 3.1 | 63.1 nM
23 | COCC(=O)NC1CCN(Cc2cc3nc(-c4cccc5[nH]ccc45)nc(N4CCOCC4)c3s2)C1 (racemic) |  | 2510 nM | 100 nM | 1000 nM |  | 4.1 | 1580 nM
24 | CN(C1CCN(Cc2cc3nc(-c4cccc5[nH]ccc45)nc(N4CCOCC4)c3s2)CC1)S(C)(=O)=O |  | 794 nM | 12.6 nM | 1260 nM |  | 5.2 | 1580 nM
25 | COCC(=O)NC1CCCN(Cc2cc3nc(-c4cccc5[nH]ncc45)nc(N4CCOCC4)c3s2)C1 (racemic) |  | 2510 nM | 100 nM | 6310 nM |  | 4.5 | 398 nM
26 | CNC(=O)NC1CCCN(Cc2cc3nc(-c4cccc5[nH]ccc45)nc(N4CCOCC4)c3s2)C1 (racemic) |  | 2510 nM | 126 nM | 2510 nM |  | 4.1 | 3980 nM
27 | CNC(=O)NC1CCCN(Cc2cc3nc(-c4cccc5[nH]ncc45)nc(N4CCOCC4)c3s2)C1 (racemic) |  | 3160 nM | 100 nM | 7940 nM |  | 3.6 | 316 nM
28 | COCC(=O)NC1CCN(Cc2cc3nc(-c4cnc(N)nc4)nc(N4CCOCC4)c3s2)C1 (racemic) |  | 50.1 nM | 79.4 nM | 501 nM |  | 2.3 | 39.8 nM
29 | COCC(=O)NC1CCCN(Cc2cc3nc(-c4cccc5[nH]ccc45)nc(N4CCOCC4)c3s2)C1 (racemic) |  | 2000 nM | 79.4 nM | 6310 nM |  | 5 | 2510 nM
30 | CN(C1CCCN(Cc2cc3nc(-c4cccc5[nH]ccc45)nc(N4CCOCC4)c3s2)C1)S(C)(=O)=O (racemic) | 95.6% | 501 nM | 6.31 nM | 1580 nM |  | 5.5 | 794 nM
31 | CC(=O)NC1CCCN(Cc2cc3nc(-c4cccc5[nH]ccc45)nc(N4CCOCC4)c3s2)C1 (racemic) |  | 2510 nM | 50.1 nM | 2510 nM |  | 4.5 | 3980 nM
32 | CC(=O)N(C)C1CCN(Cc2cc3nc(-c4cnc(N)nc4)nc(N4CCOCC4)c3s2)CC1 |  | 39.8 nM | 6.31 nM | 398 nM |  | 2.8 | 39.8 nM
